Results: patent US9790211B2, “5-amino-quinoline-8-carboxamide derivatives as 5-HT4 receptor agonists” (SUVEN LIFE SCIENCES LIMITED, priority 2013, dated 2017)

How the values were obtained:
[1] = system: Aβ1-40; assay: Effect on CSF Aβ1-40 level (ELISA); type: in vivo, Male Sprague Dawley Rat; settings: p.o., at two hour
Description: (§1) The control group of male rats received a vehicle (reagent grade water) per orally by gavage at a dose volume of 10 mL/kg. The treated groups (6 rat per group) received a single dose of test compound (different doses) or DAPT (50.0 mg/kg). Two hour post dose of vehicle or test compounds, rats were anesthetized with isoflurane and CSF was collected from Cisterna magna using 0.5 mL syringes by utilizing stereotaxic frame. The CSF samples were frozen in liquid nitrogen and stored at −80° C. until ELISA was performed.
(§2) • 1. CSF samples were thawed to RT and diluted with Tris Buffer Saline containing protease inhibitors at 1:10 ratio 115:150 μL (15 μL CSI+135 μL TBS. • 2. To this diluted CSF samples 0.15 mL of EIA buffer (1:1 ratio) was added. These diluted samples were subjected for Aβ1-40 level measurement by ELISA. Measurement of Aβ1-40 by ELISA Kit:
To investigate the role of an acute treatment of test compound on Aβ1-40 levels, expression of this protein in CSF was measured in treated and untreated rat by ELISA assay. The entire procedure was followed as per ELISA kit manual (Mouse/Rat Amyloid-Aβ1-40 ELISA, Cat No: 27721, IBL International, Hamburg, Germany).
(§3) Statistical analysis was performed using the Graph Pad Prism (Version 4). Data are Mean±SD of Aβ1-40 levels expressed as percentage of control values (rat which received regent grade water). Values were compared between the different groups by using unpaired t test. The significance level was set at *p<0.05; **p<0.01; ***p<0.001.

[2] = system: Aβ1-42; assay: Effect on CSF Aβ1-42 level (ELISA); type: in vivo, Male Sprague Dawley Rat; settings: p.o., two hour post treatment
Description: as §1, with “by puncturing” for “from”, “frame.” for “frame. The”
as §2, with “[15:150” for “115:150”, “CSF+ 135” for “CSI+135”, “TBS],” for “TBS.”, “Aβ1-42” for “Aβ1-40”
To investigate the role of an acute treatment of test compound on Aβ1-42 levels, expression of this protein was measured in CSF of treated and untreated rat by ELISA assay. The entire procedure was followed as described in ELISA kit manual (Mouse/Rat […], Cat No: 27720, IBL International, Hamburg, Germany).
as §3, with “analyses were” for “analysis was”, “Aβ1-42” for “Aβ1-40”, “by” for “by using”

[3] = system: acetylcholine levels in ventral hippocampus; assay: Modulation of acetylcholine from the ventral hippocampus (microdialysis); type: in vivo, male Wistar rats; settings: p.o.
Text: Male Wistar rats (240-300 gram body weights) were stereotaxically implanted with a microdialysis guide cannula in the ventral hippocampus (AP: −5.2 mm, ML: +5.0 mm, DV: −3.8 mm). Co-ordinates were taken according to Paxinos and Watson (2007) with reference points taken from bregma and vertical from the skull. The rats were allowed to recover individually for five days in a round bottom Plexiglas bowl with free access to feed and water.
One day prior to the microdialysis experiment, rats were connected to a dual quartz lined two-channel liquid swivel (Instech, UK) on a counter balance lever arm, which allowed unrestricted movements of the animal. […]
On the day of study, probe was perfused at a constant flow rate of […] with artificial cerebrospinal fluid (aCSF; NaCl 147 mM, KCl 3.0 mM, MgCl2 1.0 mM, CaCl2. 2H2O 1.3 mM, NaH2PO4.2H2O 0.2 mM and Na2HPO4. 7H2O 1.0 mM, pH 7.2). […] Dialysates were stored below −70° C. until quantitation of acetylcholine.
Acetylcholine in dialysate was quantified in the calibration range of 0.103 nmol-103.497 nmol using LC-MS/MS method.
All microdialysis data were plotted as percent change from mean dialysate basal concentrations with 100% defined as the average of five predose values. The AUC was calculated by trapezoidal rule using WinNonlin (5.0.1 version. Pharsight Corp. CA). […]

[4] = system: Scopolamine Induced amnesia; assay: Radial arm maze; type: in vivo; settings: p.o., rats
Text: The cognition enhancing properties of compounds of formula (I) of this invention were estimated by using this model.
Radial arm maze consists of a central hub of 45 cm diameter. Each arm was of dimension 42.5×15×24 cm. The maze was elevated to a height of 1 m above the ground. The animals were placed on a restricted diet until they reached approximately 85% of their free feeding weight. During this diet restriction period animals were habituated to the novel feed (pellets). Once the rats reached approximately 85% of their free feeding weight rats were habituated to the maze on the 1st and 2nd day. […] Animals were randomized on day 2. On the subsequent days the treatment was given as per the allotment: Each animal was introduced into the maze individually for a period of 10 minutes. The arms were baited only once and the animal had to learn the rule that repeated arm entries would not be rewarded. The trial ended once the rat had visited 16 arms or 10 minutes were over or all the pellets were eaten. The arm entries were recorded using the software. Once the trial was over the rat was removed and the maze was cleaned using soap water.

Compound | decrease in the rat CSF Aβ1-40 levels ([1]; 0.03 mg/kg) [%] | decrease in the rat CSF Aβ1-40 levels ([1]; 0.1 mg/kg) [%] | decrease in the rat CSF Aβ1-40 levels ([1]; 0.3 mg/kg) [%] | decrease in the rat CSF Aβ1-40 levels ([1]; 1.0 mg/kg) [%] | decrease in the rat CSF Aβ1-40 levels ([1]; 3.0 mg/kg) [%] | decrease in the rat CSF Aβ1-42 levels ([2]; 0.03 mg/kg) [%] | decrease in the rat CSF Aβ1-42 levels ([2]; 0.1 mg/kg) [%] | decrease in the rat CSF Aβ1-42 levels ([2]; 0.3 mg/kg) [%] | decrease in the rat CSF Aβ1-42 levels ([2]; 1.0 mg/kg) [%] | decrease in the rat CSF Aβ1-42 levels ([2]; 3.0 mg/kg) [%] | Area under the curve of acetylcholine change, ventral hippocampus (in words) ([3]; 10.0 mg/kg, vs vehicle, p<0.01) | acetylcholine levels from the ventral hippocampus (in words) ([3]; 3.0 and 10.0 mg/kg, male Wistar rats) | Reversal of Scopolamine Induced amnesia - Effective dose range [4]
Nc1c(Cl)cc(C(=O)NCC2CCN(CC3CCOCC3)CC2)c2ncccc12.O=C(O)/C=C/C(=O)O [Example 1, 5-Amino-6-chloro-N-{[1-(tetrahydro-2H-pyran-4-ylmethyl)-4-piperidinyl]methyl}quinoline-8-carboxamide hemifumarate] | 27 | 24 | 40 | 22 | 29 | 25 | 21 | 35 | 22 | 26 | – | – | –
Nc1c(Cl)cc(C(=O)NCC2CCN(CC3CCOCC3)CC2)c2ncccc12.O=C(O)C(O)C(O)C(=O)O [Example 13, 5-Amino-6-chloro-N-{[1-(tetrahydro-2H-pyran-4-ylmethyl)-4-piperidinyl]methyl} quinoline-8-carboxamide L(+)-tartarate] | – | – | – | – | – | – | – | – | – | – | significant | dose dependent increase | 0.1-1 mg/kg, p.o.
